In patent US7330794B2, “Water monitoring system using bivalve mollusks” (Aqueous Solutions, Inc., priority 2000, dated 2008):

Test system: bivalve mollusks
Experiment: Water screening with bivalve mollusks: shell gape and Degree of Alarm (DOA) on toxicant exposure
Format: in vivo
Protocol: Further calibration of the system is performed after one or more mollusk chambers are properly installed. The digital circuitry or computer 39 then monitors the gape of the mollusk during approximately the first three days after installation. From the gape values derived during this period, the computer derives a natural maximum gape value for the individual mollusk. Subsequent calculations based on output from the mollusk chamber 15 are based on the percentage of gape, i.e., the percentage of the maximum gape output value that the presently detected gape output value represents.
When the system 3 contains a number of mollusk chambers 15, the individual mollusk percentage gape data for all of the mollusks of the system is totaled, and the average percentage gape value calculated periodically per sampling interval by computer 38. This mean data value Gi is the variable used as the mollusk output data for determining if toxicants are present in the water being screened.
In the present specification, Gi means the current average mollusk gape data, Gi−i means the most recent earlier mollusk output value, Gi−2 the next earlier mollusk output variable, etc. The oldest of the gape values is Gi−n+1. Preferably, the set of data values Gi−n+1 to Gi are stored in a FIFO (first-in, first-out) stack data structure in the computer doing the analysis. The stack acts as a shift register, shifting earlier data values as the new data value Gi is acquired. Preferably the value of n is 30, and the data values G are acquired every half-second.
According to an aspect of the invention, the variance over time of the gape values is one of the best statistical indicators of the pumping of the mollusk. By the term variance, what is meant is a determination of the variability of the gape values from a mean value, which may be determined or expressed using a variety of functions. Particularly preferred, however, is the classical calculation of variance as:
In a basic method for toxicant detection, DOA is calculated continuously using the formula DOA=(V·|R|)/M wherein V is the mean variance in gape over a recent period of time, preferably 30 seconds, R is the mean regression of the gape over the period (regression herein meaning the slope of the best-fit line through the data values of the time period). M may be the traveling mean as defined above, or may be the mean gape taken over another longer period, preferably about one hour.
An implementation of this method is shown by the graphs of FIGS. 7 to 10. Water being screened by a system as described previously was loaded with sulphuric acid, resulting in a drop in pH as shown in the graph of FIG. 7.
When the variance is below this threshold value, a first, less sensitive function of the gape data values is used to calculate the DOA value. Such a function might be a linear calculation such as DOA=(1−Gi)*10 which would yield a DOA value between 0 and 10, with 10 corresponding to the mollusk completely closing its shell and strongly indicating presence of toxicant.
When the variance value is greater than or equal to the threshold value, the DOA value may be calculated by a different function which amplifies the calculation from the closing of the shell during the period of high variance. Particularly preferred is a more sensitive high-variance function: DOA=f(Gi)+V/K
An implementation of such a DOA method using a Logistic calculation, with a variance factor added for variances over 50, is illustrated by the graphs of FIGS. 12 to 16.
In this example, a system as in Example 3 was used, only the toxicant introduced was copper (as aqueous CuSO4), as shown in FIG. 17.

SMILES: [Cl-].[Na+] [chloride, NaCl]
- DOA output (chloride, Logistic calculation with variance factor for variances over 50, at 0.5 hours, chloride concentration still relatively low, FIG. 16): greater than 5
- raw gape data, decreasing over time (gradually increasing concentration of chloride (aqueous NaCl), FIG. 13): less than 40 % of normal maximum gape

SMILES: O=S(=O)(O)O [sulphuric acid]
- DOA (Degree of Alarm) values, spike (sulphuric acid, DOA=(V·|R|)/M, appears before 200 minutes, FIG. 10): greater than 100
- percentage gape at the variance spike (sulphuric acid, variance spikes shortly before 200 minutes, FIG. 9): ≤ 40%
- average percentage gape of the mollusks (water loaded with sulphuric acid (pH drop), shortly after 200 minutes, FIG. 8): less than 10 % of the normal maximum

SMILES: O=S(=O)([O-])[O-].[Cu+2] [copper, CuSO4]
- gape when DOA exceeded 8 (copper (aqueous CuSO4), between 0.5 and 1.0 hours): 50%
- DOA values (copper (aqueous CuSO4), system as in Example 3, between 0.5 and 1.0 hours, copper concentration still relatively low, FIG. 21): exceed 8 out of a possible 10
